The IC50 is the concentration at which inhibition is half-maximal.

Data on four compounds can be found in publication PMC3862803, “Human Breast Tumor Cells Are More Resistant to Cardiac Glycoside Toxicity Than Non-Tumorigenic Breast Cells” (PLoS ONE, 2013).

Read-outs that look alike come from different tables or passages of the source.

Assay [1] relates to MCF10A cells. The assay can be described thus: PrestoBlue viability assay. Format: cell-based, human. As to conditions: for IC50: Homo sapiens, MCF-10A, 24 hours, mean ± SE, n>3, read-out: Reduced cell viability (IC50). The procedure:
(§1) To determine cell growth curves, cells were trypsinized, counted using a Scepter Cell Counter (Millipore, Billerica, MA), plated in a 96-well plate at a density of 1,000, 3,000, 5,000, or 10,000 cells per well, and allowed to attach overnight. On day 2, growth curves were determined using the PrestoBlue Viability Assay (Life Technologies, Grand Island, NY) to ensure cell densities used for viability and proliferation assays were in linear growth phase.

The subject of a further assay is 184D cells. The assay can be described thus: PrestoBlue viability assay. Format: cell-based. To be noted: Homo sapiens, 24 hours, mean ± SE, n>3, read-out: Reduced cell viability (IC50). Here is the method:
as §1

In another assay the test system is 184A1 cells. The assay can be described thus: PrestoBlue viability assay. Format: cell-based. To be noted: Homo sapiens; 184A1, 24 hours; mean ± SE, n>3; read-out: Reduced cell viability (IC50). Here is the method:
as §1

For assay [2], the system named is MCF10CA1 cells. The assay can be described thus: PrestoBlue viability assay. Format: cell-based. To be noted: Homo sapiens; MCF10CA1, 24 hours; mean ± SE, n>3; read-out: Reduced cell viability (IC50). Here is the method:
as §1

Assay [3] deals with MDA-MB-231 cells. Kind of assay: PrestoBlue viability assay. Format: cell-based, human. As to conditions: for IC50: Homo sapiens, MDA-MB-231, 24 h, read-out: Reduced cell viability (IC50).
The subject of assay [4] is MCF10CA1 cells. Kind of assay: TUNEL apoptosis assay. Format: cell-based, human. As to conditions: 6 hours. Here is the method:
(§2) As a positive control, MCF10A and MCF10CA1 cells were treated with DNaseI for 15 minutes prior to assay. Cells were fixed and permeabilized prior to Terminal deoxynucleotidyl transferase dUTP nick end labeling (TUNEL) staining of DNA fragmentation using the ApopTag Fluorescein In Situ Apoptosis Detection Kit according to manufacturer’s instructions (Millipore, Billerica, MA). Slides were covered with Vectashield Mounting Medium with DAPI (Vector Laboratories, Burlingame, CA) and sealed with a glass coverslip. Images were detected and analyzed using Zeiss LSM 5 Pascal microscope and software.

The test system of assay [5] is MDA-MB-231 cells. The assay can be described thus: TUNEL apoptosis assay. Format: cell-based, human. As to conditions: 6 hours. Here is the method:
as §2

For assay [6], the system named is MCF10A cells. The assay can be described thus: TUNEL apoptosis assay. Format: cell-based, human. To be noted: 6 hours. The procedure: as §2
Assay [7] has as its system MCF7 cells. The assay can be described thus: TUNEL apoptosis assay. Format: cell-based, human. To be noted: 6 hours.
In a further assay the target is T1, Na,K-ATPase (Homo sapiens, UniProt P05023).
T1 construct: The Na,K-ATPase activity in total membranes isolated from non-tumorous 184D, 184A, and MCF10A (10A) cells; endogenous in cells; host or cells: total membranes of MCF10A, 184D, 184A1, MCF10CA1, MCF7 and MDA-MB-231 human breast cells
The assay can be described thus: biochemical. Format: biochemical. As to conditions: for IC50: mean ± SE, n>3, read-out: IC50 for CTS inhibition of ATPase activity.

Assay [8] concerns MDA-MB-231 cells. Kind of assay: BrdU cell proliferation assay. Format: cell-based, human.
Assay [9] has as its system MCF10CA1 cells. Kind of assay: BrdU cell proliferation assay. Format: cell-based, human.
For assay [10], the system named is MCF10A cells. Kind of assay: BrdU cell proliferation assay. Format: cell-based, human. As to conditions: 500 nM ouabain for 2 hours, P<0.001.
Assay [11] relates to MCF7 cells. Kind of assay: BrdU cell proliferation assay. Format: cell-based, human. As to conditions: 500 nM ouabain for 24 hours. The procedure: BrdU label was added to cells in fresh culture medium with or without ouabain for two hours according to manufacturer’s recommendations. BrdU incorporation into the DNA of proliferating cells was detected using an anti-BrdU primary antibody and Peroxidase Goat Anti-mouse secondary antibody. Fluorescence was quantified using a FLUOStar Omega microplate reader (BMG Labtech).

The next assay deals with p-ERK1/2. The assay can be described thus: Western blot of cell lysates for p-ERK1/2. To be noted: for p-ERK levels in lysates (western blot): 50 nM or 500 nM ouabain for 24 hours; for p-ERK1/2 levels in lysates (western blot): 500 nM ouabain. Format: cell-based, human. (In western blotting, separated proteins are transferred to a membrane and probed.)
A further assay has as its system prostate cancer. As to conditions: digoxin use, large prospective cohort study; cited from earlier work.
The mark [12] stands for this setting: 24 hour ouabain at high concentrations (500 nM).

Procedure for Na,K-ATPase: Total membranes (TM) were prepared from cells as previously described [37] and resuspended in cold homogenizing buffer (10 mM Tris-HCl, 2 mM EDTA, 250 mM sucrose, pH 7.4) containing Complete-Mini Protease Inhibitor Cocktail Tablets (Roche, Indianapolis, IN).
The ATPase activity assay of isolated TM from cells was performed for 30 min at 37°C as previously described [38].
Procedure for p-ERK1/2: Total cell lysate preparations were made by incubating cell pellets in lysis buffer (150 mM NaCl, 50 mM Tris, 1% CHAPS, pH 7.4) for 30 minutes at 4°C. Lysates were cleared at 15,000 x g for 10 minutes and the soluble protein supernatant was collected for analysis. Protein concentrations were determined using the Coomassie Protein Assay Kit (Pierce, Rockford, IL).
Protein samples were subject to western blot analysis according to previously described procedures [39]. Transferred proteins were blocked using either 5% dried milk, 0.1% Tween-20 in phosphate-buffered saline or 5% bovine serum albumin, 0.1% Tween-20 in Tris-buffered saline. PVDF membranes were sequentially probed with primary antibodies and horseradish peroxidase-conjugated secondary antibodies according to manufacturer’s recommendations. Luminata Forte Western HRP Substrate (Millipore, Billerica, MA) was used for peroxidase detection and the resulting signal intensity was quantified on a BioRad Chemidoc XRS using Quantity One Version 4.6.2 software. When appropriate, signal intensity from anti-actin antibody was used as a protein loading control.

`C[C@]12CC[C@H](O)C[C@H]1CC[C@@H]1[C@@H]2CC[C@]2(C)[C@@H](c3ccc(=O)oc3)CC[C@]12O` [Bufalin, bufalin]: the IC50 in the assay on MCF10A cells [1] turned out to be 0.465 ± 0.0259 µM; with 184D cells it was 0.329 ± 0.0112 µM; with 184A1 cells, 0.319 ± 0.0061 µM; with MCF10CA1 cells [2], 0.635 ± 0.172 µM; with MDA-MB-231 cells [3], 0.9364 ± 0.0049 µM. In addition, the “Cells exhibiting DNA fragmentation (TUNEL), a marker for apoptosis” value in the assay on MCF10CA1 cells [4] (50 nM bufalin) is listed as below 5%; in the assay with MDA-MB-231 cells [5] (50 nM bufalin) it was below 5%; in the assay with MCF10A cells [6] (50 nM bufalin), “Over 90%”; with MCF7 cells [7] (50 nM bufalin) it was below 5%.

Turning to `C[C@@H]1O[C@@H](O[C@H]2C[C@@H](O)[C@]3(CO)[C@H]4[C@H](O)C[C@]5(C)[C@@H](C6=CC(=O)OC6)CC[C@]5(O)[C@@H]4CC[C@]3(O)C2)[C@H](O)[C@H](O)[C@H]1O` [Ouabain, ouabain], the “ATPase inhibition at varied serum level” value on Na,K-ATPase (MCF10A isolated membranes, 0-10% serum, 500 nM ouabain, p > 0.05) is given as “No significant difference in ATPase inhibition”. The “Proliferation (BrdU incorporation)” value in the assay on MDA-MB-231 cells [8] (setting [12]) was “slight decrease in proliferation”; with MDA-MB-231 cells [8] (short-term (2 hours) ouabain), “not affected”; in the assay on MCF10CA1 cells [9] (setting [12]), “slight decrease in proliferation”; in the assay with MCF10CA1 cells [9] (short-term (2 hours) ouabain), “not affected”; in the assay with MCF10A cells [10] it was “decrease in proliferation”; with MCF7 cells [11], “no change to proliferation”. The “Cell viability over treatment duration” value with MCF10A cells [1] (500 nM ouabain, after 2 days (0 to 48 hours)) is “nearly all of the MCF10A cells have died”. Besides, the IC50 was determined as 2.17 ± 0.192 µM in the assay on MCF10A cells [1], 1.35 ± 0.155 µM in the assay with 184D cells, 1.49 ± 0.0453 µM with 184A1 cells and 2.67 ± 0.574 µM in the assay on MCF10CA1 cells [2]. Further, the “Cell viability at varied serum concentration” value is given as “increased ouabain sensitivity” in the assay with MCF10A cells [1] (reduced serum (0-10% serum), 500 nM ouabain for 24 hours) and “not affected” in the assay with MDA-MB-231 cells [3] (MDA-MB-231, 0-10% serum, 500 nM ouabain for 24 hours). In addition, the “Cells exhibiting DNA fragmentation (TUNEL), a marker for apoptosis” value in the assay on MCF10CA1 cells [4] (500 nM ouabain) was below 5%; in the assay on MDA-MB-231 cells [5] (500 nM ouabain) it was below 5%; in the assay on MCF10A cells [6] (500 nM ouabain), “Over 90%”; with MCF7 cells [7] (500 nM ouabain), below 5%. For the same compound, the “p-ERK levels in lysates (western blot)” value with p-ERK1/2 (A2780CP (cisplatin resistant) cells) and in the assay with p-ERK1/2 (A2780 cells) was “increased levels of p-ERK” each time. The “p-ERK1/2 levels in lysates (western blot)” value is “did not contain detectable levels of activated p-ERK1/2” with p-ERK1/2 (MCF10A, 24 hours (any treatment condition)); “elevated p-ERK1/2 levels” in the assay on p-ERK1/2 (MCF10CA1, 24 hours); “elevated p-ERK1/2 levels” with p-ERK1/2 (MDA-MB-231, 24 hours).

On to `C[C@H]1O[C@@H](O[C@H]2[C@@H](O)C[C@H](O[C@H]3[C@@H](O)C[C@H](O[C@H]4CC[C@@]5(C)[C@H](CC[C@@H]6[C@@H]5C[C@@H](O)[C@]5(C)[C@@H](C7=CC(=O)OC7)CC[C@]65O)C4)O[C@@H]3C)O[C@@H]2C)C[C@H](O)[C@@H]1O` [digoxin], for which the “Prevention of prostate cancer” value with prostate cancer is at most 25%.

On to `C[C@H]1O[C@@H](O[C@H]2[C@@H](O)C[C@H](O[C@H]3[C@@H](O)C[C@H](O[C@H]4CC[C@@]5(C)[C@H](CC[C@@H]6[C@@H]5CC[C@]5(C)[C@@H](C7=CC(=O)OC7)CC[C@]65O)C4)O[C@@H]3C)O[C@@H]2C)C[C@H](O)[C@@H]1O` [Digitoxin, digitoxin], for which the half-maximal inhibitory concentration (IC50) on Na,K-ATPase (total membranes of 184A1 cells) amounted to 1.83 ± 0.0887 µM; on Na,K-ATPase (total membranes of 184D cells), 2.07 ± 0.307 µM; on Na,K-ATPase (total membranes of MCF7 cells), 1.16 ± 0.0427 µM; at Na,K-ATPase (total membranes of MCF10A cells), 1.35 ± 0.0852 µM; at Na,K-ATPase (total membranes of MCF10CA1 cells) it was 1.48 ± 0.0738 µM; at Na,K-ATPase (total membranes of MDAMB231 cells) it was 1.18 ± 0.155 µM. The IC50 amounted to 1.57 ± 0.191 µM in the assay with MCF10A cells [1]; 1.27 ± 0.0654 µM with 184D cells; 1.44 ± 0.0293 µM with 184A1 cells; 3.68 ± 0.0895 µM with MCF10CA1 cells [2]; 3.68 ± 0.15 µM in the assay with MDA-MB-231 cells [3].
